Format in all cases: cell-based
One experiment concerns HTT mRNA. The experiment is described as follows: Gene panel canonical junction qPCR assay, decrease in CJ mRNA, Table 3. Particulars: decrease in canonical junction (CJ) mRNA, gene panel qPCR, Table 3. The gist of the method: (§1)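 Eleven-point dose responses from 10 uM final, 24 h, DMSO ≤0.25%, in A673 or K562 cells. Relative quantification by 2^(−ΔΔCt) against housekeeper and vehicle was converted to percent response over fixed ΔCt windows and fitted to yield IC50.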
For orientation: In qPCR the cycle at which signal appears reflects the starting amount.

The test system of the next experiment is MYB mRNA. The description is as above. Particulars: decrease in canonical junction (CJ) mRNA, gene panel qPCR, Table 3. The method, boiled down:
as §1

In a further experiment the test system is SMN2 mRNA. Described as above. Particulars: decrease in canonical junction (CJ) mRNA, gene panel qPCR, Table 3. The gist of the method:
as §1

The subject of experiment [1] is SH-SY5Y (human neuroblastoma) cells. Briefly: Cell viability, Cell Titer Glo 2.0 assay. Particulars: read-out: Viability SHSY5Y.3 GI50. The method, boiled down:
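Following a 72 h incubation (37 °C, 5% CO2, 0.1% DMSO final), compound toxicity toward SH-SY5Y cells was quantified by CellTiter-Glo 2.0.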
For orientation: ATP-based viability assays read luminescence as a measure of living cells.

Counter-ions that a name gives are not always drawn.

As usually defined, the IC50 is the concentration that gives 50% inhibition. Lower therefore signals greater potency. In general, GI50 refers to the concentration that inhibits growth by half. On to `Cc1cn2cc(NC(=O)c3ccc(N4CCC(NC5CC5(C)C)CC4)c4cn(C)nc34)cc(F)c2n1` (stereo not drawn) [Compound 205, 4-(4-((2,2-dimethylcyclopropyl)amino)piperidin-1-yl)-N-(8-fluoro-2-methylimidazo[1,2-a]pyridin-6-yl)-2-methyl-2H-indazole-7-carboxamide], for which the results for the half-inhibitory concentration (IC50) in the experiment with HTT mRNA, in the experiment with MYB mRNA and with SMN2 mRNA were 1000 to 10000 nM, less than 100 nM and less than 100 nM, respectively. Further, the GI50 in experiment [1] was in the range of 100 to 1000 nM.
As to `CCNC1CCN(c2ccc(C(=O)Nc3cn4cc(C)nc4c(OC)n3)c3nn(C)cc23)CC1` [Compound 206, 4-[4-(ethylamino)-1-piperidyl]-N-(8-methoxy-2-methyl-imidazo[1,2-a]pyrazin-6-yl)-2-methyl-indazole-7-carboxamide], the IC50 with HTT mRNA is 100 to 1000 nM; in the experiment on MYB mRNA, less than 100 nM; with SMN2 mRNA it was less than 100 nM. The GI50 in experiment [1] lay within 100 to 1000 nM.
Regarding `COc1c(NC(=O)c2c(F)cc(N3CCC(NC4CC4)CC3)c3cn(C)nc23)cn2cc(C)nc2c1F` [Compound 207, 4-[4-(cyclopropylamino)-1-piperidyl]-6-fluoro-N-(8-fluoro-7-methoxy-2-methyl-imidazo[1,2-a]pyridin-6-yl)-2-methyl-indazole-7-carboxamide], the IC50 in the experiment on HTT mRNA, with MYB mRNA and with SMN2 mRNA was less than 100 nM in each case. Besides, the GI50 in experiment [1] was less than 100 nM.
As for `COc1nc2c(C(=O)Nc3cc(F)c4nc(C)cn4c3)ccc(N3CCC(N)CC3)c2s1` [Compound 208, 7-(4-aminopiperidin-1-yl)-N-(8-fluoro-2-methylimidazo[1,2-a]pyridin-6-yl)-2-methoxybenzo[d]thiazole-4-carboxamide], the half-maximal inhibitory concentration (IC50) in the experiment on HTT mRNA is 100 to 1000 nM; in the experiment on MYB mRNA, less than 100 nM; in the experiment with SMN2 mRNA, less than 100 nM. Besides, the GI50 in experiment [1] is less than 100 nM.
On to `Cc1cn2cc(NC(=O)c3ccc(N4CCC(NC5CC5)CC4)c4cc(C)nn34)cc(F)c2n1` [Compound 209, 4-[4-(cyclopropylamino)-1-piperidyl]-N-(8-fluoro-2-methyl-imidazo[1,2-a]pyridin-6-yl)-2-methyl-pyrazolo[1,5-a]pyridine-7-carboxamide], for which the results for the half-inhibitory concentration (IC50) with HTT mRNA, in the experiment on MYB mRNA and in the experiment on SMN2 mRNA were 100 to 1000 nM, less than 100 nM and less than 100 nM, respectively. The concentration for 50% growth inhibition (GI50) in experiment [1] is less than 100 nM.
With `Cc1cn2cc(NC(=O)c3ccc(N4CCC(NC5CC5)CC4)n4cc(C)nc34)cc(F)c2n1` [Compound 210, 5-(4-(cyclopropylamino)piperidin-1-yl)-N-(8-fluoro-2-methylimidazo[1,2-a]pyridin-6-yl)-2-methylimidazo[1,2-a]-pyridine-8-carboxamide], the IC50 in the experiment on HTT mRNA is 100 to 1000 nM; in the experiment with MYB mRNA, less than 100 nM; in the experiment with SMN2 mRNA, less than 100 nM. Also, the GI50 in experiment [1] is less than 100 nM.
For `Cc1cn2cc(NC(=O)c3ccc(N4C[C@@H](C)N[C@@H](C)C4)c4[nH]cnc34)cc(F)c2n1` [Compound 220, 7-[(3R,5S)-3,5-dimethylpiperazin-1-yl]-N-(8-fluoro-2-methyl-imidazo[1,2-a]pyridin-6-yl)-1H-1,3-benzodiazole-4-carboxamide], the concentration for half-maximal inhibition (IC50) is 1000 to 10000 nM in the experiment with HTT mRNA, 100 to 1000 nM with MYB mRNA and 100 to 1000 nM in the experiment with SMN2 mRNA. Moreover, in experiment [1], the GI50 was in the range of 1000 to 10000 nM.
For `Cc1cn2cc(NC(=O)c3ccc(N4C[C@H](C)N[C@@H](C)C4)c4[nH]cnc34)cc(F)c2n1` [Compound 221, 7-[(3S,5S)-3,5-dimethylpiperazin-1-yl]-N-(8-fluoro-2-methylimidazo[1,2-a]pyridin-6-yl)-1H-1,3-benzodiazole-4-carboxamide], the figures for the IC50 in the experiment on HTT mRNA, in the experiment with MYB mRNA and in the experiment with SMN2 mRNA were greater than 10000 nM, 100 to 1000 nM and less than 100 nM, respectively. Also, the 50% growth inhibitory concentration (GI50) in experiment [1] was 1000 to 10000 nM.
Regarding `Cc1cn2cc(NC(=O)c3ccc(N4C[C@@H](C)N[C@@H](C)C4)c4[nH]c(C)nc34)cc(F)c2n1` [Compound 225, 7-[(3R,5S)-3,5-dimethylpiperazin-1-yl]-N-(8-fluoro-2-methylimidazo[1,2-a]pyridin-6-yl)-2-methyl-1H-1,3-benzodiazole-4-carboxamide], the half-inhibitory concentration (IC50) in the experiment with HTT mRNA lay in the range of 1000 to 10000 nM; in the experiment on MYB mRNA it was 1000 to 10000 nM; in the experiment on SMN2 mRNA, 100 to 1000 nM. Also, the GI50 in experiment [1] was in the range of 1000 to 10000 nM.
In the case of `Cc1cn2nc(C(=O)Nc3ccc(N4C[C@@H](C)N[C@@H](C)C4)c4cc[nH]c34)cc(C)c2n1` [Compound 237, N-(4-[(3R,5S)-3,5-dimethylpiperazin-1-yl]-1H-indol-7-yl)-2,8-dimethylimidazo[1,2-b]pyridazine-6-carboxamide], the IC50 in the experiment with HTT mRNA, in the experiment on MYB mRNA and with SMN2 mRNA was 1000 to 10000 nM throughout. Further, the concentration for 50% growth inhibition (GI50) in experiment [1] was in the range of 1000 to 10000 nM.
For `Cc1cn2cc(NC(=O)c3ccc(N4C[C@H](C)N[C@@H](C)C4)c4[nH]nnc34)cc(F)c2n1` [Compound 242, 7-[(3S,5S)-3,5-dimethylpiperazin-1-yl]-N-(8-fluoro-2-methyl-imidazo[1,2-a]pyridin-6-yl)-1H-benzotriazole-4-carboxamide], the IC50 in the experiment with HTT mRNA was greater than 10000 nM; with MYB mRNA it was greater than 10000 nM; with SMN2 mRNA, 1000 to 10000 nM. Further, in experiment [1], the GI50 is greater than 10000 nM.
Consider `Cc1cn2cc(NC(=O)c3ccc(N4C[C@@H](C)N[C@@H](C)C4)c4[nH]nnc34)cc(F)c2n1` [Compound 243, 7-((3S,5R)-3,5-dimethylpiperazin-1-yl)-N-(8-fluoro-2-methylimidazo[1,2-a]pyridin-6-yl)-1H-benzo[d][1,2,3]-triazole-4-carboxamide hydrochloride], for which the 50% inhibitory concentration (IC50) with HTT mRNA is greater than 10000 nM; in the experiment with MYB mRNA it was greater than 10000 nM; in the experiment on SMN2 mRNA, 1000 to 10000 nM. Also, in experiment [1], the GI50 was greater than 10000 nM.
For `Cc1cn2cc(NC(=O)c3c(F)cc(N4CCNCC4)c4occc34)cc(F)c2n1` [Compound 247, 5-fluoro-N-(8-fluoro-2-methylimidazo-[1,2-a]pyridin-6-yl)-7-piperazin-1-yl-benzofuran-4-carboxamide], the values for the IC50 in the experiment on HTT mRNA, in the experiment on MYB mRNA and in the experiment with SMN2 mRNA were greater than 10000 nM, greater than 10000 nM and 1000 to 10000 nM, respectively. Further, in experiment [1], the GI50 was in the range of 1000 to 10000 nM.
Consider `Cc1cn2cc(NC(=O)c3ccc(N4CCNC(C(F)(F)F)C4)c4cn(C)nc34)cc(F)c2n1` (stereo not drawn) [Compound 248, N-(8-fluoro-2-methyl-imidazo[1,2-a]-pyridin-6-yl)-2-methyl-4-[3-(trifluoro-methyl)piperazin-1-yl]indazole-7-carboxamide], for which the 50% inhibitory concentration (IC50) is greater than 10000 nM in the experiment on HTT mRNA, 1000 to 10000 nM with MYB mRNA and 100 to 1000 nM with SMN2 mRNA. For the same compound, the 50% growth inhibitory concentration (GI50) in experiment [1] is greater than 10000 nM.
Take `Cc1cn2cc(NC(=O)c3ccc(N4CCNC(C(F)F)C4)c4cn(C)nc34)cc(F)c2n1` (stereo not drawn) [Compound 249, 4-[3-(difluoromethyl)piperazin-1-yl]-N-(8-fluoro-2-methylimidazo[1,2-a]pyridin-6-yl)-2-methyl-indazole-7-carboxamide]: the IC50 in the experiment on HTT mRNA was 1000 to 10000 nM; with MYB mRNA it was 100 to 1000 nM; in the experiment with SMN2 mRNA, less than 100 nM. Further, in experiment [1], the GI50 lay in the range of 1000 to 10000 nM.
As for `COc1cc(N2CCNCC2)c2cn(C)nc2c1C(=O)Nc1cc(F)c2nc(C)cn2c1` [Compound 250, N-(8-fluoro-2-methyl-imidazo[1,2-a]pyridin-6-yl)-6-methoxy-2-methyl-4-piperazin-1-yl-indazole-7-carboxamide], the values for the IC50 with HTT mRNA, with MYB mRNA and with SMN2 mRNA were greater than 10000 nM, greater than 10000 nM and 1000 to 10000 nM, respectively. For the same compound, in experiment [1], the 50% growth inhibitory concentration (GI50) was greater than 10000 nM.
As for `Cc1cn2cc(NC(=O)c3ccc(N4CCNCC4=O)c4cn(C)nc34)cc(F)c2n1` [Compound 251, N-(8-fluoro-2-methylimidazo[1,2-a]-pyridin-6-yl)-2-methyl-4-(2-oxopiperazin-1-yl)-2H-indazole-7-carboxamide 2,2,2-trifluoroacetate], the half-inhibitory concentration (IC50) in the experiment on HTT mRNA is greater than 10000 nM; in the experiment on MYB mRNA, greater than 10000 nM; in the experiment on SMN2 mRNA, 1000 to 10000 nM. The GI50 in experiment [1] was greater than 10000 nM.
Regarding `Cc1cn2cc(NC(=O)c3ccc(N4C[C@@H](C)N[C@@H](C)C4)c4nn(C)nc34)cc(F)c2n1` [Compound 252, 7-((3S,5R)-3,5-dimethyl-piperazin-1-yl)-N-(8-fluoro-2-methyl-imidazo[1,2-a]pyridin-6-yl)-2-methyl-2H-benzo[d][1,2,3]triazole-4-carboxamide 2,2,2-trifluoroacetate], the half-inhibitory concentration (IC50) was 100 to 1000 nM in the experiment on HTT mRNA, 100 to 1000 nM with MYB mRNA and less than 100 nM in the experiment on SMN2 mRNA. Also, the GI50 in experiment [1] was 1000 to 10000 nM.
For `Cc1cn2cc(NC(=O)c3ccc(N4CCNCC4=O)c4[nH]cnc34)cc(F)c2n1` [Compound 257, N-(8-fluoro-2-methyl-imidazo[1,2-a]-pyridin-6-yl)-7-(2-oxopiperazin-1-yl)-1H-benzimidazole-4-carboxamide], the half-maximal inhibitory concentration (IC50) was greater than 10000 nM in the experiment with HTT mRNA, greater than 10000 nM in the experiment on MYB mRNA and 1000 to 10000 nM in the experiment on SMN2 mRNA. For the same compound, the concentration for 50% growth inhibition (GI50) in experiment [1] was greater than 10000 nM.
For `Cc1cn2cc(NC(=O)c3ccc(N4C[C@@H](C)N[C@@H](C)C4)c4nnn(C)c34)cc(F)c2n1` [Compound 261, 7-[(3R,5S)-3,5-dimethylpiperazin-1-yl]-N-(8-fluoro-2-methyl-imidazo[1,2-a]pyridin-6-yl)-3-methyl-benzotriazole-4-carboxamide], the IC50 in the experiment with HTT mRNA, in the experiment on MYB mRNA and in the experiment on SMN2 mRNA was greater than 10000 nM each time. In addition, the GI50 in experiment [1] was greater than 10000 nM.
Turning to `CO[C@H]1C[C@H](N[C@H]2CCN(c3ccc(C(=O)Nc4cc(F)c5nc(C)cn5c4)c4nn(C)cc34)C2)C1` [Compound 275, N-(8-fluoro-2-methylimidazo[1,2-a]pyridin-6-yl)-4-((S)-3-(((1r,3S)-3-methoxycyclobutyl)amino)pyrrolidin-1-yl)-2-methyl-2H-indazole-7-carboxamide], the results for the concentration for half-maximal inhibition (IC50) in the experiment on HTT mRNA, with MYB mRNA and with SMN2 mRNA were 1000 to 10000 nM, 100 to 1000 nM and less than 100 nM, respectively. The concentration for 50% growth inhibition (GI50) in experiment [1] lay within 1000 to 10000 nM.

The values above are taken from patent US20260285853A1, “COMPOUNDS AND METHODS FOR MODULATING SPLICING” (REMIX THERAPEUTICS INC., priority 2023, published 2026).
